Reference: patent publication US9469665B2, “Compound having lysophosphatidylserine receptor function modulation activity” (THE UNIVERSITY OF TOKYO, priority 2013, dated 2016)
Counter-ions that a name gives are not always drawn.

Assays:
[1] = biological target: T1, mouse GPR34 (Mus musculus, UniProt Q9R1K6); assay: TGFα shedding assay, agonistic activity on GPR34; format: cell-based; design: key to GPR34/LPS2 agonistic activity, TGFα shedding assay: an activity that is 100 folds that of control compound 1 as +++++; an activity that is 10 folds that of control compound 1 as ++++; the activity of the control compound 1 (LPS18:1) as +++; an activity that is 1/10 as ++; an activity that is 1/100 as +; an activity below that as −; details: for GPR34/LPS2 agonistic activity, TGFα shedding assay: HEK293 cells transfected with mouse GPR34 and AP labeled TGFα, activity relative to control compound 1 (LPS18:1) = +++
T1 construct: expressed in transfected cells; host or cells: HEK293
Description: (§1) [Test Example 1]Assay of Agonistic Activity by TGFα Shedding Assay
(§2) HEK293 cells were suspended in the Dulbecco's modified Eagle's medium (DMEM) containing 10% fetal bovine serum (FCS) to exist in an amount of 2.0×10^5 cells/mL, and they were seeded in 60 mm dishes at 4 mL per dish. Transfection of different expression vectors was performed using LipofectAMINE 2000 (Invitrogen) after 24 hours of culture under the presence of 5% CO2. For each 60 mm dish, 1 μg of AP labeled TGFα plasmid vectors were used, and 1 μg of pCAGGS plasmid vectors of mouse GPR34, P2Y10 or GPR174 were used. The plasmid vectors were prepared by methods disclosed in Patent Documents 2 and 5. Note that the AP labeled TGFα is a protein comprising a membrane-bound pro-TGFα whose N terminal end is fused with human placental alkaline phosphatase, and the plasmid vector of the AP labeled TGFα may be produced based on the teaching of Tokumaru et al., J Cell Biol 151, 209-220 (2000). After 24 hours of transfection, the cells were peeled off using trypsin/EDTA, and they were re-suspended in a culture medium to form an amount of 2.0×10^4 cells/well to be seeded to a 96-well plate. Hanks' Balanced Salt Solution (HBSS, containing 5 mM HEPES) was used for the re-suspended solution when stimulating with the compound. After it was left still for 30 min., subject compounds of various concentrations were added and the solutions were left still for another 1 hour under the presence of 5% CO2. The 96-well plate was subjected to centrifugation (190×g, 3 min.), then 80 μl of supernatant was transferred to a different 96-well plate. A reaction buffer (40 mM Tris-HCl (pH 9.5)) containing 10 mM p-nitrophenyl phosphate (p-NPP) was added in an amount of 80 μL to the supernatant and cells. The OD405 was measured with a micro plate reader (background), then after heating at 37° C. for an hour, OD405 was re-measured. The AP activity for each well was obtained by subtracting the background from the second absorbance and plugging the difference into the following formula.
(§3) In addition, the value obtained by subtracting the AP activity (%) of the non-stimulated group was used in the vertical axis to create a graph. The graphs of the test results for Example 3 (lysoPS sn-1-deoxy sn3 C3-ph-o-OBn-m-Oph) and Example 31 (lysoPS sn-1-OMe sn3 C3-ph-o-OBn-m-Oph) are shown in FIG. 1.
(§4) The obtained activity is shown by plotting the compound concentration and AP activity (%), then representing the activity of the control compound 1 (LPS18:1) as +++, an activity that is 10 folds that of control compound 1 as ++++, an activity that is 100 folds that of control compound 1 as +++++, an activity that is 1/10 as ++, and an activity that is 1/100 as +, and an activity below that as −.

[2] = biological target: T2, mouse P2Y10 (Mus musculus, UniProt Q8BFU7); assay: TGFα shedding assay, agonistic activity on P2Y10; format: cell-based; design: key: an activity that is 100 folds that of control compound 1 as +++++; an activity that is 10 folds that of control compound 1 as ++++; the activity of the control compound 1 (LPS18:1) as +++; an activity that is 1/10 as ++; an activity that is 1/100 as +; an activity below that as −; details: HEK293 cells transfected with mouse P2Y10 and AP labeled TGFα; activity relative to control compound 1 (LPS18:1) = +++
T2 construct: expressed in transfected cells; host or cells: HEK293
Description: as §1, §2, §3, §4

[3] = biological target: T3, mouse GPR174 (Mus musculus, UniProt Q3U507); assay: TGFα shedding assay, agonistic activity on GPR174; format: cell-based; design: key: an activity that is 100 folds that of control compound 1 as +++++; an activity that is 10 folds that of control compound 1 as ++++; the activity of the control compound 1 (LPS18:1) as +++; an activity that is 1/10 as ++; an activity that is 1/100 as +; an activity below that as −; details: HEK293 cells transfected with mouse GPR174 and AP labeled TGFα; activity relative to control compound 1 (LPS18:1) = +++
T3 construct: expressed in transfected cells; host or cells: HEK293
Description: as §1, §2, §3, §4

T3 sequence (Q3U507 whole entry): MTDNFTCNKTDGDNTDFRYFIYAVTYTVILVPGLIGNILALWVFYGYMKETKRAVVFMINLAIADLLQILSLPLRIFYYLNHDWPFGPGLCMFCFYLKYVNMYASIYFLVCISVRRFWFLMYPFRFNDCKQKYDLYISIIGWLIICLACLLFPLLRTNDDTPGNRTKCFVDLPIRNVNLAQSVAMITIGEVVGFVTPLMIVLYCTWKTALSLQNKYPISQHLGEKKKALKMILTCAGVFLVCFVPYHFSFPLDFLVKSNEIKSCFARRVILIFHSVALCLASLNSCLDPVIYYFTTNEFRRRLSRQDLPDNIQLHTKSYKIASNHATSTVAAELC
T1 sequence (Q9R1K6 whole entry): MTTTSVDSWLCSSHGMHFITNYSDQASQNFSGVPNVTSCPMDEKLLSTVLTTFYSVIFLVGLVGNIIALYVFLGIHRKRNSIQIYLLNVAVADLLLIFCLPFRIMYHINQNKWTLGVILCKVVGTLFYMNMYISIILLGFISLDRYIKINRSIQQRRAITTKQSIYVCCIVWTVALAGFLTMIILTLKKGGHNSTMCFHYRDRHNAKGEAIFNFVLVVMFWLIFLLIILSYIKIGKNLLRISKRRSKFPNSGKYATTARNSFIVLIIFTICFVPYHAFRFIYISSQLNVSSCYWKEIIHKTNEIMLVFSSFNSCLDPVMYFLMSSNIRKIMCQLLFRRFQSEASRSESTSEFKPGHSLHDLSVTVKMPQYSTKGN
T2 sequence (Q8BFU7 whole entry): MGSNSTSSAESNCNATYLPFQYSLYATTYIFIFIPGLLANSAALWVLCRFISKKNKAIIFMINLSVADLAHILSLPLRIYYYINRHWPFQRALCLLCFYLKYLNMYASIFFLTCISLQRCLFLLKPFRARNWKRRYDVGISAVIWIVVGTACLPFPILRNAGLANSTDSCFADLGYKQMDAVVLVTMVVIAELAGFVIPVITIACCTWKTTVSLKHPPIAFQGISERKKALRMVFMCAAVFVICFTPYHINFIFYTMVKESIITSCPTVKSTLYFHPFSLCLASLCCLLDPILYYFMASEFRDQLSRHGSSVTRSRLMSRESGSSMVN

## CCCCCCCC/C=C\CCCCCCCC(=O)OC[C@H](C)OP(=O)(O)OC[C@H](N)C(=O)O (as salt: TFA) [Example 2, (9Z)-Octadeca-9-enoic acid (2S)-2-[((2S)-2-amino-2-carboxy-ethoxy)-hydroxy-phosphoryloxy]-propyl ester]
other
  melting point: 133.5 to 134.5 °C

## C[C@H](COC(=O)CCc1ccccc1OCc1cccc(Oc2ccccc2)c1)OP(=O)(O)OC[C@H](N)C(=O)O (as salt: TFA) [Example 3, (2S)-2-amino-3-[hydroxyl-((1R)-1-methyl-2-{3-[2-(3-phenoxy-benzyloxy)-phenyl]-propionyloxy}-ethoxy)-phosphoryloxy]-propionic acid]
other
  melting point: 143.5 to 144.5 °C

## CCCCCCCC/C=C\CCCCCCCC(=O)OC[C@@H](COC)OP(=O)(O)OC[C@H](N)C(=O)O (as salt: TFA) [Example 4, (9Z)-Octadeca-9-enoic acid (2R)-2-[((2S)-2-amino-2-carboxy-ethoxy)-hydroxy-phosphoryloxy]-3-methoxy-propyl ester]
other
  melting point: 192.5 to 196 °C

## CCCCCCCC/C=C\CCCCCCCC(=O)OC[C@H](COC)OP(=O)(O)OC[C@H](N)C(=O)O (as salt: TFA) [Example 5, (9Z)-Octadeca-9-enoic acid (2S)-2-[((2S)-2-amino-2-carboxy-ethoxy)-hydroxy-phosphoryloxy]-3-methoxy-propyl ester]
other
  melting point: 149 to 150.5 °C

## CCCCCCCC/C=C\CCCCCCCC(=O)OC[C@@H](COCC)OP(=O)(O)OC[C@H](N)C(=O)O (as salt: TFA) [Example 6, (9Z)-Octadeca-9-enoic acid (2R)-2-[((2S)-2-amino-2-carboxy-ethoxy)-hydroxy-phosphoryloxy]-3-ethoxypropyl ester]
other
  melting point: 130.2 to 131 °C

## CCCCCCCC/C=C\CCCCCCCC(=O)OC[C@@H](COCc1ccccc1)OP(=O)(O)OC[C@H](N)C(=O)O (as salt: TFA) [Example 7, (9Z)-Octadeca-9-enoic acid (2R)-2-[((2S)-2-amino-2-carboxy-ethoxy)-hydroxy-phosphoryloxy]-3-benzyloxy-propyl ester]
other
  melting point: 118.5 to 122 °C

## CCCCCCCCCCCOc1ccccc1CCC(=O)O[C@@H]1COCC[C@H]1OP(=O)(O)OC[C@H](N)C(=O)O (as salt: TFA) [Example 9, (2S)-2-amino-3-(hydroxyl-{(3R,4R)-3-[3-(2-undecyloxy-phenyl)-propionyloxy]-tetrahydropyran-4-yloxy}-phosphoryloxy)-propionic acid]
other
  melting point: 122 to 123 °C

## CCCCCCCCCCCOc1ccccc1CCC(=O)O[C@H]1CCOC[C@@H]1OP(=O)(O)OC[C@H](N)C(=O)O (as salt: TFA) [Example 10, (2S)-2-amino-3-(hydroxy-{(3S,4S)-4-[3-(2-undecyloxy-phenyl)-propionyloxy]-tetrahydro-pyran-3-yloxy}-phosphoryloxy)-propionic acid]
other
  melting point: 96.5 to 98.5 °C

## CCCCCCCCCCCOc1ccccc1CCC(=O)O[C@H]1COCC[C@@H]1OP(=O)(O)OC[C@H](N)C(=O)O (as salt: TFA) [Example 11, (2S)-2-amino-3-(hydroxy-{(3S,4S)-3-[3-(2-undecyloxy-phenyl)-propionyloxy]-tetrahydro-pyran-4-yloxy}-phosphoryloxy)-propionic acid]
other
  melting point: 132.8 to 134.8 °C

## CCCCCCCCCCCOc1ccc(C(C)(C)C)cc1CCC(=O)O[C@H]1COCC[C@@H]1OP(=O)(O)OC[C@H](N)C(=O)O (as salt: TFA) [Example 12, (2S)-2-amino-3-({(3S,4S)-3-[3-(5-tert-butyl-2-undecyloxy-phenyl)-propionyloxy]-tetrahydro-pyran-4-yloxy}-hydroxy-phosphoryloxy)-propionic acid]
other
  melting point: 144 to 144.5 °C

## CCCCCCCC/C=C\CCCCCCCC(=O)OC[C@H]1OCCC[C@H]1OP(=O)(O)OC[C@H](N)C(=O)O (as salt: TFA) [Example 15, (9Z)-Octadeca-9-enoic acid (2R,3R)-3-[((2S)-2-amino-2-carboxy-ethoxy)-hydroxy-phosphoryloxy]-tetrahydropyran-2-ylmethyl ester]
other
  melting point: 70 to 80 °C

## N[C@@H](COP(=O)(O)OC[C@H]1OCCC[C@H]1OC(=O)CCc1ccccc1OCc1cccc(Oc2ccccc2)c1)C(=O)O (as salt: TFA) [Example 18]
other
  melting point: 65 to 75 °C

## N[C@@H](COP(=O)(O)O[C@H]1C=CCO[C@@H]1COC(=O)CCc1ccccc1OCc1cccc(Oc2ccccc2)c1)C(=O)O [Example 24, (2S)-2-amino-3-[hydroxy-((2R,3S)-2-{3-[2-(3-phenoxy-benzyloxy)-phenyl]-propionyloxymethyl}-3,6-dihydro-2H-pyran-3-yloxy)-phosphoryloxy]-propionic acid]
[1]
  GPR34/LPS2 agonistic activity, TGFα shedding assay: +++
[2]
  P2Y10/LPS2 agonistic activity, TGFα shedding assay: ++~+++
[3]
  GPR174/LPS3 agonistic activity, TGFα shedding assay: −

## CCCCCCCCCCCOc1ccccc1CCC(=O)OC[C@H]1OCC=C[C@H]1OP(=O)(O)OC[C@H](N)C(=O)O [Example 25, (2S)-2-amino-3-(hydroxy-{(2R,3R)-2-[3-(2-undecyloxy-phenyl)-propionyloxymethyl]-3,6-dihydro-2H-pyran-3-yloxy}-phosphoryloxy)-propionic acid]
[1]
  GPR34/LPS2 agonistic activity, TGFα shedding assay: +~++
[2]
  P2Y10/LPS2 agonistic activity, TGFα shedding assay: +++~++++
[3]
  GPR174/LPS3 agonistic activity, TGFα shedding assay: −

## N[C@@H](COP(=O)(O)O[C@@H]1C=CCO[C@@H]1COC(=O)CCc1ccccc1OCc1cccc(Oc2ccccc2)c1)C(=O)O [Example 26, (2S)-2-amino-3-[hydroxyl-((2R,3R)-2-{3-[2-(3-phenoxybenzyloxy)-phenyl]-propionyloxymethyl}-3,6-dihydro-2H-pyran-3-yloxy)-phosphoryloxy]-propionic acid]
[1]
  GPR34/LPS2 agonistic activity, TGFα shedding assay: +++~++++
[2]
  P2Y10/LPS2 agonistic activity, TGFα shedding assay: ++
[3]
  GPR174/LPS3 agonistic activity, TGFα shedding assay: −

## COC[C@H](COC(=O)CCc1ccccc1OCc1cccc(Oc2ccccc2)c1)OP(=O)(O)OC[C@H](N)C(=O)O [Example 31, (2S)-2-amino-3-[hydroxy-((1R)-1-methoxymethyl-2-{3-[2-(3-phenoxy-benzyloxy)-phenyl]-propionyloxy}-ethoxy)-phosphoryloxy]-propionic acid]
[1]
  GPR34/LPS2 agonistic activity, TGFα shedding assay: +++++
[1]; TGFα shedding assay, HEK293 cells, AP activity (%) vs concentration
  receptor selectivity of agonist activity among GPR34, P2Y10, GPR174 (graphs of FIG. 1): agonists having selectivity against GPR34
[2]
  P2Y10/LPS2 agonistic activity, TGFα shedding assay: +~++
[3]
  GPR174/LPS3 agonistic activity, TGFα shedding assay: −
